# Experimental data as given in patent US10202339B2, “Therapeutic compounds and compositions” (AGIOS PHARMACEUTICALS, INC., priority 2012, dated 2019).
# Molecular target: IDH2 R140Q (Homo sapiens (Human), UniProt P48735, R140Q)
# Assay: IDH2 R140Q enzymatic cofactor depletion assay (diaphorase/resazurin)
# Assay type: biochemical
# Conditions: IDH2 R140Q enzyme, one hour preincubation with compound, one hour reaction; read-out: Enz R140Q
# Description: The reaction was terminated by the addition of a second enzyme, diaphorase, and a corresponding substrate, resazurin. Diaphorase reduces resazurin to the highly fluorescent resorufin with the concomitant oxidation of NADPH to NADP, both halting the IDH2 reaction by depleting the available cofactor pool and facilitating quantitation of the amount of cofactor remaining after a specific time period through quantitative production of an easily detected fluorophore.
# The compound was then incubated for one hour at room temperature with the enzyme; before starting the IDH2 reaction with the addition of 10 μl of substrate mix containing 50 μM NADPH and 6.3 mM α-KG in the buffer described above. After a further one hour of incubation at room temperature, the reaction was halted and the remaining NADPH measured through conversion of resazurin to resorufin by the addition of 25 μl Stop Mix (36 μg/ml diaphorase enzyme and 60 μM resazurin; in buffer). After one minute of incubation the plate was read on a plate reader at Ex544/Em590.
# Sequence of IDH2 R140Q (P48735 40-452 R140Q): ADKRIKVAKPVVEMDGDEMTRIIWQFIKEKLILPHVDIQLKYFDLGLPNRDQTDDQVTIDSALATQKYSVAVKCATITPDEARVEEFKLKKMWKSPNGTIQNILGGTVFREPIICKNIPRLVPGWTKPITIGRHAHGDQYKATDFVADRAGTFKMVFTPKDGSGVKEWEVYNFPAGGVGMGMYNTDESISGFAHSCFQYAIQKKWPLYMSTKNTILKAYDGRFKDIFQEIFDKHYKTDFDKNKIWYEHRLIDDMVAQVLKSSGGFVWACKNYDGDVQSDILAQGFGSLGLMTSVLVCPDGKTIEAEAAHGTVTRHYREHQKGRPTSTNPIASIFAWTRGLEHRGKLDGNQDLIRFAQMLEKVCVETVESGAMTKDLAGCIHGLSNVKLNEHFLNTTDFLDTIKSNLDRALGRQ
row,Compound,IC50 [nM]
1,"2-(3-(1-methyl-1H-pyrazol-5-yl)ureido)-N-(2,2,2-trifluoroethyl)-[1,1′-biphenyl]-4-sulfonamide [Compound 77]",100 to 1000
2,"3′-methyl-N-morpholino-2-(3-(3-(trifluoromethyl)phenyl)ureido)-[1,1′-biphenyl]-4-sulfonamide [Compound 49]",100 to 1000
3,"O=C(Nc1ccccc1)Nc1cc(S(=O)(=O)Nc2ccccc2)ccc1-c1ccsc1 [Compound 1, N-phenyl-3-(3-phenylureido)-4-(thiophen-3-yl)benzenesulfonamide]",100 to 1000
4,"Cc1ccccc1NC(=O)Nc1cc(S(=O)(=O)Nc2ccccc2)ccc1-c1ccsc1 [Compound 2, N-phenyl-4-(thiophen-3-yl)-3-(3-(o-tolyl)ureido)benzenesulfonamide]",100 to 1000
5,"Cc1cccc(NC(=O)Nc2cc(S(=O)(=O)Nc3ccccc3)ccc2-c2ccsc2)c1 [Compound 3, N-phenyl-4-(thiophen-3-yl)-3-(3-(m-tolyl)ureido)benzenesulfonamide]",100 to 1000
6,"CCc1ccccc1NC(=O)Nc1cc(S(=O)(=O)Nc2ccccc2)ccc1-c1ccsc1 [Compound 4, 3-(3-(2-ethylphenyl)ureido)-N-phenyl-4-(thiophen-3-yl)benzenesulfonamide]",100 to 1000
7,"CCc1cccc(NC(=O)Nc2cc(S(=O)(=O)Nc3ccccc3)ccc2-c2ccsc2)c1 [Compound 5, 3-(3-(3-ethylphenyl)ureido)-N-phenyl-4-(thiophen-3-yl)benzenesulfonamide]",100 to 1000
8,"COc1ccccc1NC(=O)Nc1cc(S(=O)(=O)Nc2ccccc2)ccc1-c1ccsc1 [Compound 6, 3-(3-(2-methoxyphenyl)ureido)-N-phenyl-4-(thiophen-3-yl)benzenesulfonamide]",100 to 1000
9,"COc1cccc(NC(=O)Nc2cc(S(=O)(=O)Nc3ccccc3)ccc2-c2ccsc2)c1 [Compound 7, 3-(3-(3-methoxyphenyl)ureido)-N-phenyl-4-(thiophen-3-yl)benzenesulfonamide]",100 to 1000
10,"O=C(Nc1cccc(Cl)c1)Nc1cc(S(=O)(=O)Nc2ccccc2)ccc1-c1ccsc1 [Compound 8, 3-(3-(3-chlorophenyl)ureido)-N-phenyl-4-(thiophen-3-yl)benzenesulfonamide]",100 to 1000
11,"O=C(Nc1ccccc1F)Nc1cc(S(=O)(=O)Nc2ccccc2)ccc1-c1ccsc1 [Compound 9, 3-(3-(2-fluorophenyl)ureido)-N-phenyl-4-(thiophen-3-yl)benzenesulfonamide]",100 to 1000
12,"O=C(Nc1cc(S(=O)(=O)Nc2ccccc2)ccc1-c1ccsc1)Nc1ccccc1C(F)(F)F [Compound 10, N-phenyl-4-(thiophen-3-yl)-3-(3-(2-(trifluoromethyl)phenyl)ureido)benzenesulfonamide]",100 to 1000
13,"Cc1ccc(C)c(NC(=O)Nc2cc(S(=O)(=O)Nc3ccccc3)ccc2-c2ccsc2)c1 [Compound 11, 3-(3-(2,5-dimethylphenyl)ureido)-N-phenyl-4-(thiophen-3-yl)benzenesulfonamide]",100 to 1000
14,"Cc1ccc(F)c(NC(=O)Nc2cc(S(=O)(=O)Nc3ccccc3)ccc2-c2ccsc2)c1 [Compound 12, 3-(3-(2-fluoro-5-methylphenyl)ureido)-N-phenyl-4-(thiophen-3-yl)benzenesulfonamide]",100 to 1000
15,O=C(Nc1ccccc1O)Nc1cc(S(=O)(=O)Nc2ccccc2)ccc1-c1ccsc1 [Compound 13],1000 to 10000
16,CC(C)c1cccc(NC(=O)Nc2cc(S(=O)(=O)Nc3ccccc3)ccc2-c2ccsc2)c1 [Compound 14],1000 to 10000
17,Cc1cccc(C)c1NC(=O)Nc1cc(S(=O)(=O)Nc2ccccc2)ccc1-c1ccsc1 [Compound 15],1000 to 10000
18,Cc1cc(C)cc(NC(=O)Nc2cc(S(=O)(=O)Nc3ccccc3)ccc2-c2ccsc2)c1 [Compound 16],1000 to 10000
19,Cc1ccc(NC(=O)Nc2cc(S(=O)(=O)Nc3ccccc3)ccc2-c2ccsc2)cc1C [Compound 17],1000 to 10000
20,O=C(Nc1ccc(F)cc1)Nc1cc(S(=O)(=O)Nc2ccccc2)ccc1-c1ccsc1 [Compound 18],1000 to 10000
21,O=C(Nc1ccc(F)c(Cl)c1)Nc1cc(S(=O)(=O)Nc2ccccc2)ccc1-c1ccsc1 [Compound 19],1000 to 10000
22,O=C(Nc1ccc(F)c(F)c1)Nc1cc(S(=O)(=O)Nc2ccccc2)ccc1-c1ccsc1 [Compound 20],1000 to 10000
23,O=C(Nc1ccc(F)c(C(F)(F)F)c1)Nc1cc(S(=O)(=O)Nc2ccccc2)ccc1-c1ccsc1 [Compound 21],1000 to 10000
24,O=C(Nc1ccccn1)Nc1cc(S(=O)(=O)Nc2ccccc2)ccc1-c1ccsc1 [Compound 22],1000 to 10000
25,O=C(Nc1ncco1)Nc1cc(S(=O)(=O)Nc2ccccc2)ccc1-c1ccsc1 [Compound 23],1000 to 10000
26,CC1CCC(NC(=O)Nc2cc(S(=O)(=O)Nc3ccccc3)ccc2-c2ccsc2)CC1 (centres unmarked) [Compound 24],1000 to 10000
27,"O=C(Nc1ccccc1Cl)Nc1cc(S(=O)(=O)NC2CC2)ccc1-c1ccsc1 [Compound 25, 3-(3-(2-chlorophenyl)ureido)-N-cyclopropyl-4-(thiophen-3-yl)benzenesulfonamide]",100 to 1000
28,O=C(Nc1cc(Cl)cc(Cl)c1)Nc1cc(S(=O)(=O)NC2CC2)ccc1-c1ccsc1 [Compound 26],1000 to 10000
29,"O=C(Nc1cc(S(=O)(=O)NC2CC2)ccc1-c1ccsc1)Nc1cccc(Cl)c1Cl [Compound 27, N-cyclopropyl-3-(3-(2,3-dichlorophenyl)ureido)-4-(thiophen-3-yl)benzenesulfonamide]",100 to 1000
30,"O=C(Nc1cc(S(=O)(=O)NC2CC2)ccc1-c1ccsc1)Nc1ccc(F)cc1C(F)(F)F [Compound 28, N-cyclopropyl-3-(3-(4-fluoro-2-(trifluoromethyl)phenyl)ureido)-4-(thiophen-3-yl)benzenesulfonamide]",100 to 1000

# Continued, values first:
row,IC50 [nM],Compound
1,1000 to 10000,"Cc1cncc(NC(=O)Nc2cc(S(=O)(=O)NC3CC3)ccc2-c2ccsc2)c1 [Compound 29, N-cyclopropyl-3-(3-(5-methylpyridin-3-yl)ureido)-4-(thiophen-3-yl)benzenesulfonamide]"
2,< 100,"N#CC1(NS(=O)(=O)c2ccc(-c3ccsc3)c(NC(=O)Nc3cccc(C(F)(F)F)c3)c2)CC1 [Compound 31, N-(1-cyanocyclopropyl)-4-(thiophen-3-yl)-3-(3-(3-(trifluoromethyl)phenyl)ureido)benzenesulfonamide]"
3,< 100,"O=C(Nc1cccc(C(F)(F)F)c1)Nc1cc(S(=O)(=O)NC2COC2)ccc1-c1ccsc1 [Compound 32, N-(oxetan-3-yl)-4-(thiophen-3-yl)-3-(3-(3-(trifluoromethyl)phenyl)ureido)benzenesulfonamide]"
4,100 to 1000,"O=C(Nc1ccccc1F)Nc1cc(S(=O)(=O)NCC(F)(F)F)ccc1-c1ccccc1 [Compound 33, 2-(3-(2-fluorophenyl)ureido)-N-(2,2,2-trifluoroethyl)-[1,1′-biphenyl]-4-sulfonamide]"
5,100 to 1000,"O=C(Nc1ccccc1)Nc1cc(S(=O)(=O)NC2CC2)ccc1-c1ccccc1 [Compound 34, N-cyclopropyl-2-(3-phenylureido)-[1,1′-biphenyl]-4-sulfonamide]"
6,100 to 1000,"O=C(Nc1ccccc1F)Nc1cc(S(=O)(=O)NC2CC2)ccc1-c1ccccc1 [Compound 35, N-cyclopropyl-2-(3-(2-fluorophenyl)ureido)-[1,1′-biphenyl]-4-sulfonamide]"
7,100 to 1000,"O=C(Nc1cccc(C(F)(F)F)c1)Nc1cc(S(=O)(=O)NC2CC2)ccc1-c1ccccc1 [Compound 36, N-cyclopropyl-2-(3-(3-(trifluoromethyl)phenyl)ureido)-[1,1′-biphenyl]-4-sulfonamide]"
8,100 to 1000,"O=C(Nc1ccc(Cl)cc1)Nc1cc(S(=O)(=O)NCC(F)(F)F)ccc1-c1ccccc1 [Compound 37, 2-(3-(4-chlorophenyl)ureido)-N-(2,2,2-trifluoroethyl)-[1,1′-biphenyl]-4-sulfonamide]"
9,100 to 1000,"O=C(Nc1cc(F)ccc1F)Nc1cc(S(=O)(=O)NCC(F)(F)F)ccc1-c1ccccc1 [Compound 38, 2-(3-(2,5-difluorophenyl)ureido)-N-(2,2,2-trifluoroethyl)-[1,1′-biphenyl]-4-sulfonamide]"
10,100 to 1000,"O=C(Nc1ccc(F)cc1)Nc1cc(S(=O)(=O)NCC(F)(F)F)ccc1-c1ccccc1 [Compound 39, 2-(3-(4-fluorophenyl)ureido)-N-(2,2,2-trifluoroethyl)-[1,1′-biphenyl]-4-sulfonamide]"
11,100 to 1000,"O=C(Nc1ccc(F)c(Cl)c1)Nc1cc(S(=O)(=O)NCC(F)(F)F)ccc1-c1ccccc1 [Compound 40, 2-(3-(3-chloro-4-fluorophenyl)ureido)-N-(2,2,2-trifluoroethyl)-[1,1′-biphenyl]-4-sulfonamide]"
12,100 to 1000,"O=C(Nc1cc(S(=O)(=O)NCC(F)(F)F)ccc1-c1ccccc1)Nc1c(F)cccc1F [Compound 41, 2-(3-(2,6-difluorophenyl)ureido)-N-(2,2,2-trifluoroethyl)-[1,1′-biphenyl]-4-sulfonamide]"
13,100 to 1000,"O=C(Nc1ccccc1Cl)Nc1cc(S(=O)(=O)NCC(F)(F)F)ccc1-c1ccccc1 [Compound 42, 2-(3-(2-chlorophenyl)ureido)-N-(2,2,2-trifluoroethyl)-[1,1′-biphenyl]-4-sulfonamide]"
14,100 to 1000,"O=C(Nc1ccccc1OC(F)(F)F)Nc1cc(S(=O)(=O)NCC(F)(F)F)ccc1-c1ccccc1 [Compound 43, N-(2,2,2-trifluoroethyl)-2-(3-(2-(trifluoromethoxy)phenyl)ureido)-[1,1′-biphenyl]-4-sulfonamide]"
